The record followed here is patent publication US20090325952A1, “PYRAZOLO[3,4-B]PYRIDINE COMPOUNDS, AND THEIR USE AS PDE4 INHIBITORS” (Glaxo Group Limited, priority 2006, published 2009).

Structures can show the parent of a compound that is named as a salt. Where only a bound is given, the exact number is not on record here.

In the first assay the target is PDE4D (human recombinant) (Homo sapiens, UniProt Q08499). Nature of the assay: Inhibition of PDE4D activity (FP assay). The format is biochemical. The following applies: FP assay or generally similar assay; ±about 0.5 or more. From the text: Human recombinant PDE4D (HSPDE4D3A) is disclosed in P. A. Baecker et al., “Isolation of a cDNA encoding a human rolipram-sensitive cyclic AMP phoshodiesterase (PDE IVD)”, Gene, 1994, 138, 253-256.
Sequence of PDE4D (human recombinant) (Q08499 1-673 isoform Q08499-2): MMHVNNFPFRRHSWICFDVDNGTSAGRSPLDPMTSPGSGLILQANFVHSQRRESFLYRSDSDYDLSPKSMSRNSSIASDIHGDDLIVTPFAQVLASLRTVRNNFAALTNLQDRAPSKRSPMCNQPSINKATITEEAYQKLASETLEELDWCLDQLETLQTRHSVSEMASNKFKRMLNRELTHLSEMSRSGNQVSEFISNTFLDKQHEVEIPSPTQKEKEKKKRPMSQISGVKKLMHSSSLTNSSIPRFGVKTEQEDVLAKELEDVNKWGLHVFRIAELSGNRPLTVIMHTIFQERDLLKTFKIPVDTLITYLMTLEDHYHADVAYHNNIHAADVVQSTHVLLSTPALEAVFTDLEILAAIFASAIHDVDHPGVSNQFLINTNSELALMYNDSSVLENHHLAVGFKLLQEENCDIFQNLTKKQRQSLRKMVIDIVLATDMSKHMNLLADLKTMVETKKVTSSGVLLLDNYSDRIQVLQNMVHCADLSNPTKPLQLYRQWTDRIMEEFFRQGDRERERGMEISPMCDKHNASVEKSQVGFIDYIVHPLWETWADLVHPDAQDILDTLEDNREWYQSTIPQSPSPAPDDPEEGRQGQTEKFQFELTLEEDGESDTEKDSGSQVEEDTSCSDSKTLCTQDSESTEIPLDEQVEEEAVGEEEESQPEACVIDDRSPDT
The ability of compounds to inhibit catalytic activity at PDE4B (human recombinant) or PDE4D (human recombinant) can optionally be determined by IMAP Fluorescence Polarisation (FP) assay (IMAP Explorer kit, available from Molecular Devices Corporation, Sunnydale, Calif., USA; Molecular Devices code: R8062) in 384-well format.
The IMAP FP assay is able to measure PDE activity in an homogenous, non-radioactive assay format. The FP assay uses the ability of immobilised trivalent metal cations, coated onto nanoparticles (tiny beads), to bind the phosphate group of Fl-AMP that is produced on the hydrolysis of fluorescein-labelled (Fl) cyclic adenosine mono-phosphate (Fl-cAMP) to the non-cyclic Fl-AMP form. […] Binding of Fl-AMP product to the beads (coated with the immobilised trivalent cations) slows the rotation of the bound Fl-AMP and leads to an increase in the fluorescence polarisation ratio of parallel to perpendicular light. Inhibition of the PDE reduces/inhibits this signal increase.
Test compounds (small volume, e.g. ca. 0.5 to 1 microlitres (ul), suitably ca. 0.5 ul, of solution in DMSO) are preincubated at ambient temperature (room temperature, e.g. 19-23° C.) in black 384-well microtitre plates (supplier: NUNC, code 262260) with PDE enzyme in 10 mM Tris-HCl buffer pH 7.2, 10 mM MgCl2, 0.1% (w/v) bovine serum albumin, and 0.05% NaN3 for 10-30 minutes. The enzyme level is set by experimentation so that reaction is linear throughout the incubation. Fluorescein adenosine 3′,5′-cyclic phosphate (from Molecular Devices Corporation, Molecular Devices code: R7091) is added to give about 40 nM final concentration (final assay volume usually ca. 20-40 ul, suitably ca. 20 ul). Plates are mixed on an orbital shaker for 10 seconds and incubated at ambient temperature for 40 minutes. IMAP binding reagent (as described above, from Molecular Devices Corporation, Molecular Devices code: R7207) is added (60 ul of a 1 in 400 dilution in binding buffer of the kit stock solution) to terminate the assay. Plates are allowed to stand at ambient temperature for 1 hour. The Fluorescence Polarisation (FP) ratio of parallel to perpendicular light is measured using an Analyst™ plate reader (from Molecular Devices Corporation). For inhibition curves, 10 concentrations (e.g. 1.5 nM-30 uM) of each compound are assayed. Curves are analysed using ActivityBase and XLfit (ID Business Solutions Limited, 2 Ocean Court, Surrey Research Park, Guildford, Surrey GU2 7QB, United Kingdom). Results are expressed as pIC50 values.
The PDE4D pIC50 values of some compounds or salts of the invention are as follows, as measured using an FP assay or a generally similar assay: • the salt of Example 1A1: PDE4D pIC50=about 10.7 (about 0.5 or more) (n=8). • the compound of Example 1B: PDE4D pIC50=about 10.4 (about 0.5 or more) (n=2). • the salt of Example 9: PDE4D pIC50>about 11.0 (± about 0.5 or more) (n=1). • the salt of Example 19: PDE4D pIC50=about 10.7 (±about 0.5 or more) (n=2). • the salt of Example 26: PDE4D pIC50=about 9.4 (±about 0.5 or more) (n=2). • the compound of Example 23A: PDE4D pIC50=about 10.5 (± about 0.5 or more) (n=1). Emesis: Some known PDE4 inhibitors can cause emesis and/or nausea to greater or lesser extents, especially after systemic exposure e.g. after oral administration (e.g. see Z. Huang et al., Current Opinion in Chemical Biology, 2001, 5: 432-438, see especially pages 433-434 and refs cited therein). Therefore, it would be preferable, but not essential, if a PDE4 inhibitory compound or salt of the invention were to cause only limited or manageable emetic side-effects, e.g. after inhaled or parenteral or external-topical administration. […]
On to `CCc1nc2c(cnn2CC)c(NC2CCN(C(N)=O)CC2)c1CNC(=O)c1ccc(NC(=O)CCCCCCCN(C)CCO)cc1.O=C(O)C(F)(F)F` [Example 9, 4-({1,6-diethyl-5-[({[4-({8-[(2-hydroxyethyl)(methyl)amino]octanoyl}amino)phenyl]carbonyl}amino)methyl]-1H-pyrazolo[3,4-b]pyridin-4-yl}amino)-1-piperidinecarboxamide trifluoroacetate (salt)], for which the “PDE4D pIC50” value was greater than 11.0.

The assay is the same for the next values; noted with them: FP assay or generally similar assay; ±about 0.5 or more; read-out: PDE4D pIC50 (converted).
Take `CCc1nc2c(cnn2CC)c(NC2CCOCC2)c1CNC(=O)c1ccc(NC(=O)CCCCCCCN(C)CCO)cc1` [Example 1A1, N-{[1,6-Diethyl-4-(tetrahydro-2H-pyran-4-ylamino)-1H-pyrazolo[3,4-b]pyridin-5-yl]methyl}-4-({8-[(2-hydroxyethyl)(methyl)amino]octanoyl}amino)benzamide dihydrochloride]: the IC50 was roughly 20 pM.
The same measure, in the same setting: to `CCc1nc2c(cnn2CC)c(NC2CCOCC2)c1CNC(=O)c1ccc(NC(=O)CCCCCCCN(C)CCO)cc1` [Example 1B, N-{[1,6-diethyl-4-(tetrahydro-2H-pyran-4-ylamino)-1H-pyrazolo[3,4-b]pyridin-5-yl]methyl}-4-({8-[(2-hydroxyethyl)(methyl)amino]octanoyl}amino)benzamide] belongs roughly 39.8 pM; to `CCc1nc2c(cnn2CC)c(NC2CCOCC2)c1CNC(=O)c1ccc(CCCCOCCCCN(C)CCO)cc1` [Example 19, formate salt of N-{[1,6-diethyl-4-(tetrahydro-2H-pyran-4-ylamino)-1H-pyrazolo[3,4-b]pyridin-5-yl]methyl}-4-[4-({4-[(2-hydroxyethyl)(methyl)amino]butyl}oxy)butyl]benzamide], roughly 20 pM; to `CCc1nc2c(cnn2CC)c(NC2CCN(C(N)=O)CC2)c1CNC(=O)c1ccc(CCCCOCCCCN2CCOCC2)cc1` [Example 23A, 4-({1,6-diethyl-5-[({[4-(4-{[4-(4-morpholinyl)butyl]oxy}butyl)phenyl]carbonyl}amino)methyl]-1H-pyrazolo[3,4-b]pyridin-4-yl}amino)-1-piperidinecarboxamide], roughly 31.6 pM.
Turning to `CCn1ncc2c(NC3CCOCC3)c(CNC(=O)c3ccc(NC(=O)CCCCCCCN(C)CCO)cc3)cnc21` [Example 26, Formate salt of N-{[1-ethyl-4-(tetrahydro-2H-pyran-4-ylamino)-1H-pyrazolo[3,4-b]pyridin-5-yl]methyl}-4-({8-[(2-hydroxyethyl)(methyl)amino]octanoyl}amino)benzamide], the IC50 was roughly 398 pM.
